How the values were obtained:
BACE1 [1] = target: T1, BACE1 (Homo sapiens (Human), UniProt P56817); assay: BACE1 binding assay (SPA-based, radioligand); conditions: pH 4.5, Ki=IC50/(1+L/Kd)
Method: The binding assay was performed as SPA-based assay using a biotinylated form of human BACE1 recombinantly expressed and subsequently purified from Freestyle HEK293 cells. The binding assay was run in a 50 mM sodium acetate buffer, pH 4.5 containing 50 mM NaCl and 0.03% Tween-20 in white clear bottom 384 plates (Corning #3653). 10 nM (final concentration) radioligand ([^3H]-N-((1S,2R)-1-benzyl-3-cyclopropylamino-2-hydroxy-propyl)-5-(methanesulfonyl-methyl-amino)-N-((R)-1-phenyl-ethyl)-isophthalamide) (TRQ11569 purchased from GE Healthcare) was mixed with test compound at a given concentration, 6 nM (final concentration) human BACE1 and 25 μg Streptavidin coated PVT core SPA beads (RPNQ0007, GE Healthcare Life Sciences) in a total volume of 40 μl. Several concentrations of each test compound were tested in the assay for IC50 determination. The plates were incubated for one hour at room temperature and counted in a Wallac Trilux counter. Total and non-specific binding were determined using buffer and 1 μM (final concentration) of the high affinity BACE1 reference inhibitor (S)-6-[3-chloro-5-(5-prop-1-ynyl-pyridin-3-yl)-thiophen-2-yl]-2-imino-3,6-dimethyl-tetrahydro-pyrimidin-4-one, respectively. For each test compound, a IC50 value (the concentration mediating 50% inhibition of the specific binding of the radioligand) was determined from concentration-response curve and used to calculate the Ki from the equation Ki=IC50/(1+L/Kd), where L and Kd are the final concentration of the radioligand used in the assay and the dissociation constant of the radioligand, respectively. The Kd of the radioligand was determined from saturation binding experiments.

Aβ40 = assay: Assessment of Aβ peptide levels in rat brain and plasma following BACE1 inhibition (Aβ40 ELISA); assay type: in vivo; conditions: 3 hours post dose, vs vehicle
Method: Assessment of Aβ Peptide Levels in Rat Brain and Plasma Following BACE1 Inhibition. Animals.
Young adult Male Sprague Dawley rats of approximately 250 g weight were purchased from Charles River and received 0-30 mg/kg of vehicle (10% HP betaCD+1M MeSO4, pH 2.5) or test compounds (dissolved in vehicle) only by oral gavage (p.o). The compounds are dosed at a volume of […]. Cohorts of 5-10 animals were established for each treatment condition.
At T=180 minutes after initial dosing the animals were stunned and decapitated with a guillotine. Trunk-blood was sampled in EDTA coated tubes after decapitation of the animal. The blood was centrifuged at 2200 G at 4° C. for 15 minutes and the plasma was collected and frozen at −80° C. The blood was aliquoted for Aβ ELISA and DMPK analysis. Immediately following sacrifice, the brain was extracted and split into 2 halves. The right hemibrains were snap frozen on dry ice and stored at −80° C. The left half was dissected; with the front forebrain taken for Aβ ELISA and the remainder used for DMPK analysis. These samples were also snap frozen on dry ice and stored at −80° C. until use for analysis.
The cortex samples were thawed slightly on wet ice before they were homogenized with a small volume dispersing instrument (T10 basic ULTRA-TURRAX®) which was set at speed 5 for approximately 5-7 sec. The tissue was processed in a 10 times volume of the weight, for example 100 mg of tissue was homogenized in 1000 μL of Homogenization buffer. Homogenization buffer: 50 ml Milli Q water+[…]+0.2% Diethylamin (DEA)+1 tablet of Complete Protease inhibitor cocktail+1 nM 4-(2-aminoethyl)benzenesulfonyl fluoride hydrochloride irreversible serine protease inhibitor (AEBSF).
After homogenization 450 μL aliquots of the samples are collected into a 1.5 ml Eppendorf tube and placed on wet ice, 0.5% NP-40 (50 ul) was added to all samples and then they were incubated on ice for 30 min. After which all samples were sonicated using an Ultrasonic homogenizer with 20 kHz homogeneous sound (SONOPLUS HD2070, Bandelin Electronic) 10 pulse set at 12-13% power to extract all the Aβ species. The samples were then centrifuged (Ole Dich 157 MPRF Micro centrifuge) at 20000 G for 20 minutes at 4° C. After centrifugation 285 μL of the supernatant was pipetted into 600 μL microtubes tubes and neutralized with 15 μL of 1M Tris-HCL buffer.
WAKO 294-62501 Human/Rat Abeta amyloid (40) kit was used for all ELISA analyses. 30 μL plasma samples or 30 μL of the cortex supernatants generated as described above were placed in 600 μL microtubes tubes on wet ice. To this 30 μL of 8M Urea (AppliChem A1049, 9025) are added to generate a 2-fold dilution. Both plasma and cortex supernatants are incubated on ice for 30 min. Standard rows were prepared from the standard peptide stock provided in the kit and standard diluent containing 1.6M Urea (200 μL 8M Urea+800 μL of standard diluent) and 0.8M Urea (400 μL 8M Urea+3600 μL Standard diluent). A serial 2-fold dilution of Aβ40 from 100 pmol/ml to 0 pmol/L was prepared for the assay.
After incubation with urea, all samples were further diluted by addition of 5 times standard diluent from the Kit. This was done by adding 240 μL Standard Diluent to 60 μL sample/urea mixture, which was then mixed well. 100 μL of each diluted sample was pipetted into designated wells of the ELISA plate in duplicates. The plate was then covered and incubated overnight at 4° C. The following day, the ELISA kit was brought to room temperature before use. The incubated plate was washed 5 times with the 20× washing solution diluted in Milli Q water. 100 μL HRP-conjugate was applied to each well, and the plate was covered and incubates at 4° C. for 1 hr. The wash was repeated again for 5 times. 100 μL 3,3′,5,5′-Tetramethylbenzidine (TMB) solution was applied to each well and the plate was covered and incubated in the dark at room temperature for 30 minutes. […]

BACE1 [2] = target: T1, BACE1; assay: BACE1 efficacy assay (FRET-based, commercial BACE1 kit); assay type: biochemical; conditions: 10 μM test compound
Method: The efficacy assay was performed as a FRET-based assay using a commercially available BACE1 kit (Life Technologies, P2985). 2 μl test compound at 10 μM (final concentration) and 15 μl BACE1 enzyme from the kit (final concentration 3 nM) were preincubated for 15 minutes at room temperature before addition of 15 μl of substrate from the kit (250 nM final concentration) and incubated for additional 90 minutes at room temperature. The assay plate was subsequently read in a Pherastar (Ex540/Em590). The enzyme activity observed in presence of test compound were normalized to the enzyme activity observed in presence of buffer and 10 μM (final concentration) of the high affinity BACE1 reference inhibitor (S)-6-[3-Chloro-5-(5-prop-1-ynyl-pyridin-3-yl)-thiophen-2-yl]-2-imino-3,6-dimethyl-tetra-hydropyrimidin-4-one, respectively. The efficacy of the test compounds was evaluated at 10 μM (final concentration) and defined as the percent inhibition of the enzyme activity using the equation % inhibition=100%−normalized enzyme activity in percent.

T1 sequence (P56817 46-501): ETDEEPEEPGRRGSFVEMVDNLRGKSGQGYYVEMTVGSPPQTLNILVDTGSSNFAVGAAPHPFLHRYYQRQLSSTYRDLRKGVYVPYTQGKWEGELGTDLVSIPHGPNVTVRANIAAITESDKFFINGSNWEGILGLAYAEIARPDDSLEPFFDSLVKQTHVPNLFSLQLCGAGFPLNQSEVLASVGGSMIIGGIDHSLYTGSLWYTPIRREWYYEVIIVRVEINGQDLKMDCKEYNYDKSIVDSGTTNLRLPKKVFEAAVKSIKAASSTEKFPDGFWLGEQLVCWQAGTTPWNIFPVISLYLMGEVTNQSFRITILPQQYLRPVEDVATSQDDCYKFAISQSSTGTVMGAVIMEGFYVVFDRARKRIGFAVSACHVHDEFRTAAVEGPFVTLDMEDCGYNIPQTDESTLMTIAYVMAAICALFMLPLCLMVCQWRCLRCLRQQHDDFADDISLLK

## COc1cnc(C(=O)Nc2cc(F)c(F)c([C@@]3(CF)N=C(N)CCC3(F)F)c2)cn1 [Compound 11, (S)-N-(3-(6-amino-3,3-difluoro-2-(fluoromethyl)-2,3,4,5-tetrahydropyridin-2-yl)-4,5-difluorophenyl)-5-methoxypyrazine-2-carboxamide]
BACE1 [1]
  Ki: 14 nM
Aβ40; rat brain, 10 mg/kg p.o.
  Aβ40 reduction: 43%
Aβ40; rat brain, 30 mg/kg p.o.
  Aβ40 reduction: 50%
Aβ40; rat plasma, 10 mg/kg p.o.
  Aβ40 reduction: 31%
Aβ40; rat plasma, 30 mg/kg p.o.
  Aβ40 reduction: 37%
BACE1 [2]
  inhibition at 10 µM: 103%

Source: patent publication US10058540B2, “2-amino-5,5-difluoro-6-(fluoromethyl)-6-phenyl-3,4,5,6-tetrahydropyridines as BACE1 inhibitors” (H. Lundbeck A/S, priority 2014, dated 2018)
